According to patent US7608630B2, “Marasmius androsaceus L.es Fr extract, piperidone derivative, and their use for the preparation of hypertensives” (Hainan Yangpu New Special Pharmaceutical Co., Ltd., priority 2004, dated 2009):
“And” between values parts separate entries of the source, which are not always exact repeats. Equal values may be shown once.

Experiments:
[1] = test system: blood pressure of SHR rat; test: Reduction of blood pressure of anesthetized SHR rat; format: in vivo, spontaneously hypertensive rat (SHR); settings: SHR rat; for Diastolic pressure / Systolic pressure: 10 mg/kg intravenous; for reduction of systolic pressure and diastolic pressure: dosage range 10-200 mg/kg, intravenous
Protocol: (§1) A spontaneously hypertensive rat (SHR) was anesthetized with 40 mg/ml pentobarbital, and fixed by its back on an experimental stand. The skin at its neck was cut open after removing hair, and thereafter the right common carotid artery was separated with its proximal end being clamped by a artery clamp and its axifugal end being ligated by a thread. A V-shape cut was made with scissors at the axifugal end, into which an arterial cannula filled with heparin physiological saline was inserted. The arterial cannula was connected with a blood pressure transducer, and then the blood pressure transducer was connected to a computer-controlled three-way physiological-pharmacological recorder. The right femoral vein of the rat was separated and intubated for the injection of a drug. When the blood pressure became stable (i.e., the blood pressure contraction curve became straight), the rat was administered by intravenous route.

[2] = test system: ileum smooth muscle of guinea pig; test: Effects on ileum smooth muscle of guinea pig (automatic rhythmic contraction of isolated ileum section)
Protocol: The section was clamped at its both ends with frog heart clips, and placed in a perfusion tank with the lower end being fixed at the bottom of the tank and the top end being connected by a thread to a tensile transducer of a two-way electrophysiolograph, so that the automatic rhythmic contraction of the ileum section was recorded. The Tai's nutrient solution in the tank was kept at a temperature of 35° C., into which pure […] was bubbled. […] The normal contraction curve of the ileum section was firstly recorded using isoprenaline as a positive control.

[3] = test system: aorta smooth muscle of rabbit; test: Effects on aorta of rabbit (contraction of isolated aorta section caused by adrenalin); design: species or system New Zealand rabbit
Protocol: A New Zealand rabbit was beheaded and unconscious. After thoracotomy, its thoracic aorta was quickly taken out, and quickly placed in and flushed with a pre-cooled LOCK's solution (which comprised of 1000 ml water, 9 g NaCl, 0.35 g KCl, 0.35 g MgSO4.7H2O, 0.16 g KH2PO4, and 1 g NaHCO3) to remove bloodiness. The connective tissue outside the blood vessel was carefully cut off, and an aorta section of 2-3 mm wide at an angle of 45° relative to the vessel was taken for use in the following test.
The aorta section of 2 cm long was clamped at its both ends with frog heart clips, and put in a thermostatic perfusion tank of 38° C. with the lower end being fixed at the bottom of the tank and the top end being connected by a thread to a tensile transducer of a two-way electrophysiolograph. Oxygen was bubbled to the solution in the perfusion tank, and the contraction force of the aorta section was recorded after balancing it in the solution for 80 min. During which, the LOCK's solution was changed once per 20 min. After adding 1.2×10^−6 mg/ml adrenalin to the solution, the contraction curve of the aorta section was recorded.

blood pressure of cats = test: Reduction of blood pressure of cat; format: in vivo; settings: cats, 10 mg/kg o.s; for Diastolic pressure, Animal 1-4 individually / Systolic pressure, Animal 1-4 individually / Systolic pressure, Animal 3-4 individually: 10 mg/kg
Protocol: as §1
Five cats of 2.5-3.2 kg were administered orally and intravenously respectively according to the method in Example 8, and then their systolic pressure and diastolic pressure were determined using normal cats non-administered as a control group.

[4] = 10 min after administration (Table 9)
[5] = 20 min after administration (Table 9)
[6] = 30 min after administration (Table 9)
[7] = 40 min after administration (Table 9)
[8] = 50 min after administration (Table 9)
[9] = 60 min after administration (Table 9)
[10] = 90 min after administration (Table 9)
[11] = 120 min after administration (Table 9)
[12] = 150 min after administration (Table 9)
[13] = 180 min after administration (Table 9)
[14] = before administration (Table 9)

## CC1(C)CNCC(C)(C)C1=O.Cl [3,3,5,5-tetramethyl-4-piperidone hydrochloride]
[1]; 5 min after administration
  Diastolic pressure: 109 ± 13 mm/Hg
  Systolic pressure: 139 ± 19 mm/Hg
[1]; 60 min after administration
  Diastolic pressure: 89 ± 12 mm/Hg
  Systolic pressure: 123 ± 11 mm/Hg
[1]; 120 min after administration
  Diastolic pressure: 80 ± 23 mm/Hg
  Systolic pressure: 129 ± 17 mm/Hg
[1]; 240 min after administration
  Diastolic pressure: 112 ± 16 mm/Hg
  Systolic pressure: 169 ± 14 mm/Hg
[1]; before administration
  Diastolic pressure: 119 ± 15 mm/Hg
  Systolic pressure: 170 ± 9.3 mm/Hg
[1]
  reduction of systolic pressure and diastolic pressure: could obviously reduce the systolic pressure and diastolic pressure of SHR rat

## CC(C)NCC(O)c1ccc(O)c(O)c1 (stereo not drawn) [Isoprenaline, reference compound]
[2]; concentration 5 × 10^−5 mg/ml
  Relaxation Time: 0.3 h
  Time of taking effect: 16 min
[2]; concentration 5×10^−5 mg/ml, control
  time after flushing at which the inhibited contraction is resumed: 20 min
[3]; concentration 1.2 × 10^−6 mg/ml
  Time of taking effect: 16 min
[3]; concentration 1.2 × 10^−6 mg/ml, relative to original adrenalin contraction
  Contraction force: 1

## CCN1CC(C)(C)C(=O)C(C)(C)C1 [Compound of formula Ia, 1-ethyl-3,3,5,5-tetramethyl-4-piperidone]
[3]; concentration 1 × 10^−4 mg/ml
  Time of taking effect: 3 min
[3]; concentration 1 × 10^−4 mg/ml, 10 min, then adrenalin 1.2×10^−6 mg/ml, relative to original value
  Contraction force: 0.3
[3]; concentration range 5×10^−3-1×10^−4 mg/ml
  reduction of the contraction of aorta section caused by adrenalin: could obviously reduce the contraction of aorta section caused by adrenalin
[3]; sample 10 min, then adrenalin 1.2×10^−6 mg/ml, stated for the three samples together
  contraction force resumed by adrenalin, fraction of the original value: ½-⅓

## CC1(C)CNCC(C)(C)C1O [Compound of formula Ib, 3,3,5,5-tetramethyl-4-piperidanol]
[2]; concentration 1 × 10^−4 mg/ml
  Relaxation Time: 5 h
  Time of taking effect: 3 min
[2]; different concentrations
  inhibition of the automatic rhythmic contraction of the ileum section: could inhibit the automatic rhythmic contraction of the ileum section
[1]; 5 min after administration
  Systolic pressure: 140 ± 19 mm/Hg
[1]; 60 min after administration
  Diastolic pressure: 88 ± 10 mm/Hg
  Systolic pressure: 121 ± 15 mm/Hg
[1]; 120 min after administration
  Diastolic pressure: 89 ± 8.9 mm/Hg
  Systolic pressure: 126 ± 16 mm/Hg
[1]; 240 min after administration
  Diastolic pressure: 107 ± 9.2 mm/Hg
  Systolic pressure: 162 ± 11 mm/Hg
[1]; before administration
  Diastolic pressure: 125 ± 17 mm/Hg
  Systolic pressure: 178 ± 13 mm/Hg
[1]
  reduction of systolic pressure and diastolic pressure: could obviously reduce the systolic pressure and diastolic pressure of SHR rat
Blood pressure of cats; [4]
  Average Diastolic pressure: 106.75 mmHg
  Average Systolic pressure: 141.75 mmHg
  Diastolic pressure, Animal 1-4 individually: 119 mmHg and 105 mmHg and 100 mmHg and 103 mmHg
  Systolic pressure, Animal 1-4 individually: 136 mmHg and 139 mmHg and 145 mmHg and 147 mmHg
Blood pressure of cats; [5]
  Average Diastolic pressure: 104.25 mmHg
  Average Systolic pressure: 140 mmHg
  Diastolic pressure, Animal 1-4 individually: 135 mmHg and 89 mmHg (2×) and 104 mmHg
  Systolic pressure, Animal 1-4 individually: 146 mmHg and 125 mmHg and 153 mmHg and 136 mmHg
Blood pressure of cats; [6]
  Average Diastolic pressure: 104.75 mmHg
  Average Systolic pressure: 140.5 mmHg
  Diastolic pressure, Animal 1-4 individually: 130 mmHg and 90 mmHg (2×) and 109 mmHg
  Systolic pressure, Animal 1-4 individually: 146 mmHg and 126 mmHg and 154 mmHg and 136 mmHg
Blood pressure of cats; [7]
  Average Diastolic pressure: 102.25 mmHg
  Average Systolic pressure: 139 mmHg
  Diastolic pressure, Animal 1-4 individually: 126 mmHg and 91 mmHg and 102 mmHg and 90 mmHg
  Systolic pressure, Animal 1-4 individually: 140 mmHg and 126 mmHg and 154 mmHg and 136 mmHg
Blood pressure of cats; [8]
  Average Diastolic pressure: 103 mmHg
  Average Systolic pressure: 136.5 mmHg
  Diastolic pressure, Animal 1-4 individually: 126 mmHg and 96 mmHg and 103 mmHg and 87 mmHg
  Systolic pressure, Animal 1-4 individually: 136 mmHg and 130 mmHg (2×) and 150 mmHg
Blood pressure of cats; [9]
  Average Diastolic pressure: 109 mmHg
  Average Systolic pressure: 138 mmHg
  Diastolic pressure, Animal 1-4 individually: 123 mmHg and 97 mmHg and 102 mmHg and 114 mmHg
  Systolic pressure, Animal 1-4 individually: 140 mmHg and 122 mmHg and 152 mmHg and 138 mmHg
Blood pressure of cats; [10]
  Average Diastolic pressure: 109.25 mmHg
  Average Systolic pressure: 141.75 mmHg
  Diastolic pressure, Animal 1-4 individually: 125 mmHg and 95 mmHg and 110 mmHg and 107 mmHg
  Systolic pressure, Animal 1-4 individually: 135 mmHg and 130 mmHg and 156 mmHg and 146 mmHg
Blood pressure of cats; [11]
  Average Diastolic pressure: 116.75 mmHg
  Average Systolic pressure: 151.5 mmHg
  Diastolic pressure, Animal 1-4 individually: 131 mmHg and 94 mmHg and 115 mmHg and 127 mmHg
  Systolic pressure, Animal 1-4 individually: 146 mmHg and 131 mmHg and 165 mmHg and 164 mmHg
Blood pressure of cats; [12]
  Average Diastolic pressure: 116.75 mmHg
  Average Systolic pressure: 155.25 mmHg
  Diastolic pressure, Animal 1-4 individually: 132 mmHg and 98 mmHg and 117 mmHg and 120 mmHg
  Systolic pressure, Animal 1-4 individually: 145 mmHg and 139 mmHg and 166 mmHg and 171 mmHg
Blood pressure of cats; [13]
  Average Diastolic pressure: 118.5 mmHg
  Average Systolic pressure: 158.5 mmHg
  Diastolic pressure, Animal 1-4 individually: 133 mmHg and 97 mmHg and 113 mmHg and 131 mmHg
  Systolic pressure, Animal 1-4 individually: 152 mmHg and 142 mmHg and 160 mmHg and 180 mmHg
Blood pressure of cats; 210 min after administration (Table 9)
  Systolic pressure, Animal 3-4 individually: 156 mmHg and 186 mmHg
Blood pressure of cats; 210 min after administration (Table 9; two animals)
  Average Systolic pressure: 171 mmHg
Blood pressure of cats; 240 min after administration (Table 9)
  Systolic pressure, Animal 3-4 individually: 155 mmHg and 202 mmHg
Blood pressure of cats; 240 min after administration (Table 9; two animals)
  Average Systolic pressure: 178.5 mmHg
Blood pressure of cats; [14]
  Average Diastolic pressure: 140 mmHg
  Average Systolic pressure: 195.25 mmHg
  Diastolic pressure, Animal 1-4 individually: 134 mmHg and 156 mmHg and 116 mmHg and 154 mmHg
  Systolic pressure, Animal 1-4 individually: 150 mmHg and 209 mmHg and 185 mmHg and 237 mmHg
